Measured values as given in patent US8642609B2, “Modulators of ATP-binding cassette transporters” (Vertex Pharmaceuticals Incorporated, priority 2003, dated 2014).

Target: T1, ΔF508-CFTR (Homo sapiens, UniProt P13569, DEL508-508)
T1 construct: expressed in transfected cells
Assay: Membrane potential optical assay (FRET/VIPR), identification of correction compounds
Format: cell-based
Details: for Emax: relative efficacy
From the text: I) Membrane Potential Optical Methods for Assaying ΔF508-CFTR Modulation Properties of Compounds
The optical membrane potential assay utilized voltage-sensitive FRET sensors described by Gonzalez and Tsien (See, Gonzalez, J. E. and R. Y. Tsien (1995) “Voltage sensing by fluorescence resonance energy transfer in single cells” Biophys J 69(4): 1272-80, and Gonzalez, J. E. and R. Y. Tsien (1997) “Improved indicators of cell membrane potential that use fluorescence resonance energy transfer” Chem Biol 4(4): 269-77) in combination with instrumentation for measuring fluorescence changes such as the Voltage/Ion Probe Reader (VIPR) (See, Gonzalez, J. E., K. Oades, et al. (1999) “Cell-based assays and instrumentation for screening ion-channel targets” Drug Discov Today 4(9): 431-439).
These voltage sensitive assays are based on the change in fluorescence resonant energy transfer (FRET) between the membrane-soluble, voltage-sensitive dye, DiSBAC2(3), and a fluorescent phospholipid, CC2-DMPE, which is attached to the outer leaflet of the plasma membrane and acts as a FRET donor. Changes in membrane potential (Vm) cause the negatively charged DiSBAC2(3) to redistribute across the plasma membrane and the amount of energy transfer from CC2-DMPE changes accordingly. The changes in fluorescence emission were monitored using VIPR™ II, which is an integrated liquid handler and fluorescent detector designed to conduct cell-based screens in 96- or 384-well microtiter plates.
Identification of Correction Compounds
To identify small molecules that correct the trafficking defect associated with ΔF508-CFTR; a single-addition HTS assay format was developed. The cells were incubated in serum-free medium for 16 hrs at 37° C. in the presence or absence (negative control) of test compound. As a positive control, cells plated in 384-well plates were incubated for 16 hrs at 27° C. to “temperature-correct” ΔF508-CFTR. The cells were subsequently rinsed 3× with Krebs Ringers solution and loaded with the voltage-sensitive dyes. To activate ΔF508-CFTR, 10 μM forskolin and the CFTR potentiator, genistein (20 μM), were added along with Cl^−-free medium to each well. The addition of Cl^−-free medium promoted Cl^− efflux in response to ΔF508-CFTR activation and the resulting membrane depolarization was optically monitored using the FRET-based voltage-sensor dyes.
NIH3T3 mouse fibroblasts stably expressing ΔF508-CFTR are used for optical measurements of membrane potential. The cells are maintained at 37° C. in 5% CO2 and 90% humidity in Dulbecco's modified Eagle's medium supplemented with 2 mM glutamine, 10% fetal bovine serum, 1×NEAA, β-ME, 1× pen/strep, and 25 mM HEPES in 175 cm^2 culture flasks. For all optical assays, the cells were seeded at 30,000/well in 384-well matrigel-coated plates and cultured for 2 hrs at 37° C. before culturing at 27° C. for 24 hrs. for the potentiator assay. For the correction assays, the cells are cultured at 27° C. or 37° C. with and without compounds for 16-24 hours B) Electrophysiological Assays for assaying ΔF508-CFTR modulation properties of compounds

T1 sequence (P13569 with tags, fused parts or gaps DEL508-508): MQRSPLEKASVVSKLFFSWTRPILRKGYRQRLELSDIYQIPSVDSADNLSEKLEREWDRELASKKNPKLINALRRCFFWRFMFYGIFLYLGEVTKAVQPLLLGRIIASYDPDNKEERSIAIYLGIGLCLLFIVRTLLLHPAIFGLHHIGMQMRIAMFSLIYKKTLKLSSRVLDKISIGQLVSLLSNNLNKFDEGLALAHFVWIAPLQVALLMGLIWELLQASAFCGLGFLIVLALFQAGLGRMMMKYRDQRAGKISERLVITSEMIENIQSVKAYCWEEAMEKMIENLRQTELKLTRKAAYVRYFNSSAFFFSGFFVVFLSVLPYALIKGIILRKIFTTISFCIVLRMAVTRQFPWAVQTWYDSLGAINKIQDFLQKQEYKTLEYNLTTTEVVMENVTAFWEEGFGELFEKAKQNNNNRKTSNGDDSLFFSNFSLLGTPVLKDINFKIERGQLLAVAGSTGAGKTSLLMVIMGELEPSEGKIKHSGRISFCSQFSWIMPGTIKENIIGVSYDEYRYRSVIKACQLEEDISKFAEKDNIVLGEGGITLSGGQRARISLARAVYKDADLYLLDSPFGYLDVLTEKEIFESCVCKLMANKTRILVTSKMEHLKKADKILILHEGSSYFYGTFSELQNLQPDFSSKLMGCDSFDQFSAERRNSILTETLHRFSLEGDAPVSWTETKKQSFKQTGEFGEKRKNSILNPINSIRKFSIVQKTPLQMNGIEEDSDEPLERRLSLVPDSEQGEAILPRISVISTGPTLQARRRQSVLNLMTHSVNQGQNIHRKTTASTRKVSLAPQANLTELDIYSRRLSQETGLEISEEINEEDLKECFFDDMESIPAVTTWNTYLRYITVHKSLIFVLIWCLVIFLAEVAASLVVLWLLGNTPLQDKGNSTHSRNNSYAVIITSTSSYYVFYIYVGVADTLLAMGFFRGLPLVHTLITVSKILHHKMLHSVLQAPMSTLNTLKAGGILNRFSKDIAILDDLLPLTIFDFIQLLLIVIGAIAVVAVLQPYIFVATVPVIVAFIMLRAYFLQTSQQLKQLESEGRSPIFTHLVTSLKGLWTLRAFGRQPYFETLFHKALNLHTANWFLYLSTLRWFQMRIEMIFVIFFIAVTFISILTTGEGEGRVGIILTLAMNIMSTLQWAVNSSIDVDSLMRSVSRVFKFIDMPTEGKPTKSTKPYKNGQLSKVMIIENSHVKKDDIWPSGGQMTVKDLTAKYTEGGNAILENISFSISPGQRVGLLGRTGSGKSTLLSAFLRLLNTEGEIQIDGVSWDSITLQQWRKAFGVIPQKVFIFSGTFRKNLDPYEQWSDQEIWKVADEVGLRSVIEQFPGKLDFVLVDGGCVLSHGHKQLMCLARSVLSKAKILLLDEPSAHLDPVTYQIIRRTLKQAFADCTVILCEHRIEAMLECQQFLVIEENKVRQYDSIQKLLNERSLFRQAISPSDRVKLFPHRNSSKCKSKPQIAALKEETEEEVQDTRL

Row | SMILES | EC50 [µM] | Emax [%]
1 | COc1ccc(S(=O)(=O)N2CCN(C(C)c3nc4ccc(-c5nnn[nH]5)cc4c(=O)n3C)CC2)cc1 (centres unmarked) [compound 144] | 25 to 60 | 25 to 100
2 | CC(c1nc(N(C)C)c2ccccc2n1)N1CCN(S(=O)(=O)c2ccc(Br)cc2)CC1 (centres unmarked) [compound 220] | 25 to 60 | > 100
3 | Cc1cccc(S(=O)(=O)N2CCN(C(C)c3nc4ccccc4c(=O)n3C)CC2)c1 (centres unmarked) [compound 48] | 25 to 60 | 25 to 100
4 | Cc1cccc(CC(=O)N2CCN(C(C)c3nc4cc(Cl)ccc4c(=O)n3C)CC2)c1 (centres unmarked) [compound 113] | 10 to 25 | < 25
5 | COc1ccc(S(=O)(=O)N2CCN(C(=O)c3nc(N4CCCCC4)c4ccccc4n3)CC2)cc1 [compound 402] | 25 to 60 | < 25
6 | CC(c1nc2ccccc2c(=O)n1CCO)N1CCN(S(=O)(=O)c2ccc(Br)cc2)CC1 (centres unmarked) [compound 153] | 10 to 25 | 25 to 100
7 | CNc1nc(C(C)N2CCN(S(=O)(=O)c3ccc(Br)cc3)CC2)nc2ccccc12 (centres unmarked) [compound 219] | 25 to 60 | 25 to 100
8 | CC(c1nc2ccc(C#N)cc2c(=O)n1C)N1CCN(S(=O)(=O)c2ccccc2)CC1 (centres unmarked) [compound 123] | 10 to 25 | < 25
9 | COc1ccc(S(=O)(=O)N2CCN(C(C)c3nc(OC)c4ccccc4n3)CC2)cc1 (centres unmarked) [compound 187] | 25 to 60 | 25 to 100
10 | COc1ccc(S(=O)(=O)N2CCN(C(C)c3nc4ccccc4c(=O)n3CCNC(C)=O)CC2)cc1 (centres unmarked) [compound 288] | 25 to 60 | < 25
11 | CC(c1nc2cc(Cl)ccc2c(=O)n1C)N1CCN(S(=O)(=O)c2ccc(S(C)(=O)=O)cc2)CC1 (centres unmarked) [compound 110] | 10 to 25 | < 25
12 | CC(c1nc2ccc(S(C)(=O)=O)cc2c(=O)n1C)N1CCN(S(=O)(=O)c2ccc(Cl)cc2)CC1 (centres unmarked) [compound 141] | 10 to 25 | 25 to 100
13 | CC(c1nc2ccccc2c(=O)n1C)N1CCN(C(=O)Nc2ccc(Cl)cc2)CC1 (centres unmarked) [compound 33] | 25 to 60 | 25 to 100
14 | COc1ccc(S(=O)(=O)N2CCN(C(C)c3nc(OCC4COCO4)c4ccccc4n3)CC2)cc1 (centres unmarked) [compound 294] | 25 to 60 | 25 to 100
15 | CNC(=O)c1cnc(C(C)N2CCN(S(=O)(=O)c3ccc(OC)cc3)CC2)nc1N1CCCCC1 (centres unmarked) [compound 357] | 25 to 60 | 25 to 100
16 | Cc1noc(C)c1S(=O)(=O)N1CCN(C(C)c2nc3ccccc3c(=O)n2C)CC1 (centres unmarked) [compound 266] | 25 to 60 | < 25
17 | CC(NCCCN)c1nc2ccccc2c(=O)n1C (centres unmarked) [compound 185] | 25 to 60 | < 25
18 | COc1ccc(S(=O)(=O)NC2CCN(C(C)c3nc4ccccc4c(=O)n3C)CC2)cc1 (centres unmarked) [compound 164] | 25 to 60 | 25 to 100

Row | SMILES | EC50 [µM] | Emax [%]
19 | CC(=O)c1ccc(S(=O)(=O)N2CCN(C(C)c3nc4ccccc4c(=O)n3C)CC2)cc1 (centres unmarked) [compound 239] | 25 to 60 | < 25
20 | CC(c1nc2ccc(Cl)cc2c(=O)n1C)N1CCN(C(=O)c2ccc(Br)cc2)CC1 (centres unmarked) [compound 17] | 10 to 25 | 25 to 100
21 | CC(c1nc2ccccc2c(=O)n1C)N1CCN(S(=O)(=O)c2ccc(C#N)cc2)CC1 (centres unmarked) [compound 250] | 25 to 60 | 25 to 100
22 | CCc1nc2cccc(Cl)c2c(=O)n1C [compound 102] | 25 to 60 | < 25
23 | Cc1ccc(NC(=O)N2CCN(C(C)c3nc4ccccc4c(=O)n3C)CC2)cc1 (centres unmarked) [compound 56] | 10 to 25 | < 25
24 | CC(c1nc2ccc(Cl)cc2c(=O)n1C)N1CCN(C(=O)Nc2ccccc2Br)C(C)C1 (centres unmarked) [compound 2] | 25 to 60 | 25 to 100
25 | CCCCC(=O)N1CCN(C(C)c2nc3ccc(Cl)cc3c(=O)n2C)CC1 (centres unmarked) [compound 16] | 25 to 60 | < 25
26 | CC(c1nc2ccccc2c(=O)n1C)N1CCN(S(=O)(=O)c2ccc(OC(F)F)cc2)CC1 (centres unmarked) [compound 293] | 25 to 60 | > 100
27 | CC(c1nc2ccccc2c(=O)n1C)N1CCN(S(=O)(=O)c2cccc3nsnc23)CC1 (centres unmarked) [compound 282] | 25 to 60 | < 25
28 | COc1ccc(S(=O)(=O)N2CCC(NC(C)c3nc4ccccc4c(=O)n3C)C2)cc1 (centres unmarked) [compound 224] | 25 to 60 | < 25
29 | CC(c1nc2ccccc2c(=O)n1C)N(CCCNS(=O)(=O)c1ccc(Cl)cc1)S(=O)(=O)c1ccc(Cl)cc1 (centres unmarked) [compound 206] | 25 to 60 | < 25
30 | COc1ccc(S(=O)(=O)N2CCN(C(C)c3nc(N4CCC(N5CCCCC5)CC4)c4ccccc4n3)CC2)cc1 (centres unmarked) [compound 317] | 25 to 60 | < 25
31 | COc1ccc(S(=O)(=O)N2CCN(C(C)c3nc4ccc(C#N)cc4c(=O)n3C)CC2)cc1 (centres unmarked) [compound 124] | 10 to 25 | 25 to 100
32 | CC(c1nc2ccc(Cl)cc2c(=O)n1C)N1CCN(C(=O)Nc2ccccc2)CC1 (centres unmarked) [compound 43] | 25 to 60 | < 25
33 | CC(c1nc2cc(Cl)ccc2c(=O)n1C)N1CCNCC1 (centres unmarked) [compound 90] | 25 to 60 | < 25
34 | CC(c1nc2ccccc2c(=O)n1C)N1CCN(S(=O)(=O)c2ccc(Br)s2)CC1 (centres unmarked) [compound 247] | 10 to 25 | 25 to 100
35 | COc1ccc(S(=O)(=O)N2CCN(C(C)c3nc4cc(Cl)ccc4c(=O)n3C)CC2)cc1OC (centres unmarked) [compound 100] | 10 to 25 | 25 to 100

Second part, the compound after the results:

Row | EC50 [µM] | Emax [%] | SMILES
36 | 10 to 25 | < 25 | CC(c1nc2ccc(Cl)cc2c(=O)n1C)N1CCN(C(=O)c2cccc(Cl)c2)CC1 (centres unmarked) [compound 83]
37 | < 10 | 25 to 100 | CC(c1nc2cc(Cl)ccc2c(=O)n1C)N1CCN(S(=O)(=O)c2ccc(Cl)cc2)CC1 (centres unmarked) [compound 94]
38 | < 10 | 25 to 100 | COc1ccc(S(=O)(=O)N2CCN(C(C)c3nc4ccc(Br)cc4c(=O)n3C)CC2)cc1 (centres unmarked) [compound 116]
39 | 10 to 25 | < 25 | CC(c1nc2ccc(Cl)cc2c(=O)n1C)N1CCN(S(=O)(=O)Cc2ccccc2)CC1 (centres unmarked) [compound 86]
40 | 10 to 25 | 25 to 100 | CC(c1nc2ccccc2c(=O)[nH]1)N1CCN(S(=O)(=O)c2ccc(Br)cc2)CC1 (centres unmarked) [compound 127]
41 | < 10 | < 25 | Cc1ccccc1C(=O)N1CCN(C(C)c2nc3ccccc3c(=O)n2C)CC1 (centres unmarked) [compound 32]
42 | < 10 | > 100 | CC(c1nc(N2CCCCC2)c2ccccc2n1)N1CCN(S(=O)(=O)c2ccc(Cl)cc2)CC1 (centres unmarked) [compound 237]
43 | < 10 | > 100 | COc1ccc(S(=O)(=O)N2CCN(C(C)c3nc(N4CCSCC4)c4ccccc4n3)CC2)cc1 (centres unmarked) [compound 321]
44 | < 10 | 25 to 100 | COc1ccc(S(=O)(=O)N2CCN(C(C)c3nc(N4CCCCC4C)c4ccccc4n3)CC2)cc1 (centres unmarked) [compound 326]
45 | < 10 | > 100 | COc1ccc(S(=O)(=O)N2CCN(C(C)c3nc(OC4CCCC4)c4cc(F)ccc4n3)CC2)cc1 (centres unmarked) [compound 375]
46 | < 10 | 25 to 100 | CC(c1nc2ccc(Br)cc2c(=O)n1C)N1CCN(S(=O)(=O)c2ccc(Br)cc2)CC1 (centres unmarked) [compound 118]
47 | < 10 | 25 to 100 | CC(c1nc2cc(Cl)ccc2c(=O)n1C)N1CCN(S(=O)(=O)c2ccc(Br)cc2)CC1 (centres unmarked) [compound 95]
48 | < 10 | 25 to 100 | CC(c1nc2ccccc2c(=O)n1C)N1CCC(NS(=O)(=O)c2ccc(Br)cc2)CC1 (centres unmarked) [compound 166]
49 | < 10 | 25 to 100 | CCn1c(C(C)N2CCN(S(=O)(=O)c3cccc4ccccc34)CC2)nc2ccc(Cl)cc2c1=O (centres unmarked) [compound 35]
50 | < 10 | > 100 | Cc1ccc(S(=O)(=O)N2CCN(C(C)c3nc4cc(Cl)ccc4c(=O)n3C)CC2)cc1 (centres unmarked) [compound 92]
51 | < 10 | 25 to 100 | CC(c1nc2ccccc2c(=O)n1C)N(CCCNS(=O)(=O)c1ccc(Br)cc1)S(=O)(=O)c1ccc(Br)cc1 (centres unmarked) [compound 207]
52 | < 10 | > 100 | CCCC(c1nc2ccccc2c(=O)n1CC)N1CCN(S(=O)(=O)c2ccc(OC)cc2)CC1 (centres unmarked) [compound 341]
